Read-outs that look alike come from different tables or passages of the source.
How the values were obtained:
[1] = Affinity capillary electrophoresis (ACE), pH 7.4; conditions: 30 mM phosphate buffer pH 7.4, 25 °C, 15 kV
Outline: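 Mobility-shift ACE of cathinone analogues with cyclodextrins (0.25–20 mM in BGE) in 30 mM phosphate pH 7.4, 25 °C, fused-silica capillary, 15 kV, UV 215 nm, DMSO as EOF marker. Mobilities obtained by HVL peak fitting; complex stability constants corrected for viscosity and ionic strength.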

[2] = Affinity capillary electrophoresis (ACE), pH 4.5; conditions: 20 mM acetate buffer pH 4.5, 25C, 15 kV
Text: The simplest way to determine the mobility is from the migration times (tmax) read from the electropherograms from which the apparent mobility could be calculated, but more accurate mobility values could be obtained by the determination with the Haarhoff–van der Linde (HVL) function based on Equation (2). (2) HVLδ(t;a0,a1,a2,a3δ)=a0/a2a3δ2πexp[−1/2(t−a1/a2)^2]/1/exp(a3δ)−1+1/2[1+erf(t−a1/2a2)] where a0 is the area of the HVL function, a1 is the position of the Gaussian component, a2 is the standard deviation of the Gaussian component, and a3δ is the peak shape distortion. The application of the HVL function is necessary in the case of accurate ACE measurements because, in several cases, the peaks are distorted due to the complex formation, which makes reading the migration times and calculating the mobility more difficult and imprecise.
The most popular technique for quantifying the analyte–ligand interaction with CE is mobility shift ACE. This technique involves varying the background electrolyte’s ligand concentrations while introducing a constant volume of the analyte and an EOF marker into the capillary. The analyte–ligand equilibrium is assumed to happen before the separation is complete, requiring fast complex formation kinetics. Typical ligand concentrations are 1–2 orders of magnitude greater than the analyte. The following equation describes the observed mobility as a function of the interaction with the following analyte ligand:(3) μ=μfff+μcfc where μ is the observed mobility, μf and μc are the electrophoretic mobility of the free and complexed analyte, and ff and fc are the free and ligand-bound fractions of the analyte.
Assuming a 1:1 binding stoichiometry, the effective mobility (μeff, calculated by correcting with the EOF marker mobility) can be expressed as (4) μeff=μfK+μc[L]/K+[L] where K is the equilibrium dissociation constant and [L] is the ligand concentration. The apparent complex stability constant (K) can be calculated using several methods, e.g., the X-reciprocal method with linear fitting, but non-linear curve fitting based on Equation (4) is more accurate. A hyperbolic growing or decline curve is obtained, and K could be determined by plotting the effective mobility as a function of the [L] (e.g., CD concentration) in the background electrolyte. The CEval software enables faster and simpler evaluation of electropherograms and further data processing to determine the stability constants of complexes with a 1:1 stoichiometric ratio [27].
During the ACE measurement series, the CD concentration is increased whilst injecting a constant amount of the cathinone derivatives and the EOF marker DMSO. The complex stability calculations were conducted with the CEval program applying the HVL function to eliminate the effect of electromigration dispersion on migration time for exact mobility and, thus complex stability constant determination. Viscosity correction and ionic strength correction were applied. […]

[3] = pKa determination by CE-pH titration; type: physicochemical; conditions: 25 mM Na2HPO4 / 25 mM Na2B4O7 buffers, pH 7–10, 25 °C
Text: CE is a widely used technique for the analysis of charged compounds; thus, the acid-base properties and the pKa of the analyte are crucial in CE method development. Furthermore, the protonation state of compounds has a decisive influence on both their behavior in the body and their affinity for CDs. […] However, it has the disadvantage that its reproducibility is less than that of conventional pH potentiometry; thus, the results of CE-pH titration should be confirmed by independent method (potentiometry, NMR-pH titration).
In order to determine the pKa of the five cathinone analogs, CE-pH titration was applied, in which the purpose was to register the effective mobility changes as a function of pH. As the five tested compounds contain secondary or tertiary amino groups, the pH range tested was pH 7–10, applying Na2HPO4 -Na2B4O7 buffers, where the appropriate pH was adjusted with hydrochloric acid. At a given pH, the mobility is determined by the sum of the mobility of the protonated and deprotonated forms:(1) μpH=μLxL+μHLxHL=μL+μHLKH^+/1+KH^+ where the μpH is the mobility of the compound at the given pH; μL and μHL are the mobilities of the deprotonated and protonated forms, respectively; xL and xHL are the mole fractions of the deprotonated and protonated forms, respectively; and K is the protonation constant. Plotting the μpH data against pH gives the titration curves from which the protonation constant can be calculated according to Equation (1).

[4] = pKa determination by potentiometry; type: physicochemical; conditions: aqueous solution; I = 0.15 M KCl, 25.0 °C
Description: The protonation constants were confirmed by potentiometry using a GLpKa instrument (Sirius, Forest Row, UK) equipped with a combination Ag/AgCl pH electrode. The four-parameter technique (Four PlusTM method) was used for electrode calibration. The titrations were carried out at constant ionic strength (I = 0.15 M KCl) and temperature (T = 25.0 ± 0.5 °C) under a nitrogen atmosphere. An amount of 10 ml of a ~1 mM aqueous solution of the analytes (4-MEC, MDPV) was pre-acidified to pH 2.0 with 0.5 M HCl and then titrated with 0.5 M KOH to pH 12.2. Three parallel measurements were carried out. The pKa values were calculated using the RefinementProTM software (Sirius, Forest Row, UK).

[5] = CE-pH titration; cited from earlier work

CO[C@@H]1[C@@H](OC)[C@H]2O[C@H]3[C@H](OC)[C@@H](OC)[C@@H](O[C@H]4[C@H](OC)[C@@H](OC)[C@@H](O[C@H]5[C@H](OC)[C@@H](OC)[C@@H](O[C@H]6[C@H](OC)[C@@H](OC)[C@@H](O[C@H]7[C@H](OC)[C@@H](OC)[C@@H](O[C@H]8[C@H](OC)[C@@H](OC)[C@@H](O[C@@H]1[C@@H](COS(=O)(=O)O)O2)O[C@@H]8COS(=O)(=O)O)O[C@@H]7COS(=O)(=O)O)O[C@@H]6COS(=O)(=O)O)O[C@@H]5COS(=O)(=O)O)O[C@@H]4COS(=O)(=O)O)O[C@@H]3COS(=O)(=O)O [HDMS-β-CD, heptakis-(2,3-O-dimethyl, 6-O-sulfo)-β-CD]
MDPV–CD complex stability constant, Kstab/Kstab1 (unresolved or first migrating enantiomer) [1]: 915 ± 265 M⁻¹
4-MEC–CD complex stability constant Kstab1 (first migrating enantiomer) [2]: 170 ± 15 M⁻¹
4-MEC–CD complex stability constant, Kstab2 (second migrating enantiomer) [2]: 190 ± 15 M⁻¹
Butylone–CD complex stability constant Kstab1 (first migrating enantiomer) [2]: 150 ± 10 M⁻¹
Butylone–CD complex stability constant, Kstab2 (second migrating enantiomer) [2]: 180 ± 12 M⁻¹
Flephedrone–CD complex stability constant Kstab1 (first migrating enantiomer) [2]: 250 ± 7 M⁻¹
Flephedrone–CD complex stability constant, Kstab2 (second migrating enantiomer) [2]: 235 ± 20 M⁻¹
MDPV–CD complex stability constant Kstab1 (first migrating enantiomer) [2]: 160 ± 15 M⁻¹
MDPV–CD complex stability constant, Kstab2 (second migrating enantiomer) [2]: 175 ± 12 M⁻¹
Mephedrone–CD complex stability constant Kstab1 (first migrating enantiomer) [2]: 205 ± 20 M⁻¹
Mephedrone–CD complex stability constant, Kstab2 (second migrating enantiomer) [2]: 205 ± 15 M⁻¹

CNC(C)C(=O)c1ccc(F)cc1 (racemic) [Flephedrone, (±)-1-(4-fluorophenyl)-2-(methylamino)propan-1-one]
pKa [3]: 8.56 ± 0.01

O=S(=O)(O)OC[C@H]1O[C@@H]2O[C@H]3[C@H](O)[C@@H](O)[C@@H](O[C@H]4[C@H](O)[C@@H](O)[C@@H](O[C@H]5[C@H](O)[C@@H](O)[C@@H](O[C@H]6[C@H](O)[C@@H](O)[C@@H](O[C@H]7[C@H](O)[C@@H](O)[C@@H](O[C@H]8[C@H](O)[C@@H](O)[C@@H](O[C@H]1[C@H](O)[C@H]2O)O[C@@H]8COS(=O)(=O)O)O[C@@H]7COS(=O)(=O)O)O[C@@H]6COS(=O)(=O)O)O[C@@H]5COS(=O)(=O)O)O[C@@H]4COS(=O)(=O)O)O[C@@H]3COS(=O)(=O)O [HS-β-CD, heptakis-(6-O-sulfo)-β-CD]
Flephedrone–CD complex stability constant, Kstab2 (second migrating enantiomer) [1]: 470 ± 65 M⁻¹
Flephedrone–CD complex stability constant, Kstab/Kstab1 (unresolved or first migrating enantiomer) [1]: 580 ± 14 M⁻¹
Flephedrone–CD complex stability constant Kstab1 (first migrating enantiomer) [2]: 635 ± 35 M⁻¹
Flephedrone–CD complex stability constant, Kstab2 (second migrating enantiomer) [2]: 615 ± 30 M⁻¹
MDPV–CD complex stability constant Kstab1 (first migrating enantiomer) [2]: 500 ± 45 M⁻¹

CCCC(C(=O)c1ccc2c(c1)OCO2)N1CCCC1 (racemic) [MDPV, (±)-1-(benzo[d]-[1, 3]-dioxol-5-yl)-2-(pyrrolidin-1-yl)pentan-1-one]
pKa [4]: 9.05 ± 0.04
pKa [3]: 9 ± 0.02
pKa [5]: 9.13

CCC(NC)C(=O)c1ccc2c(c1)OCO2 (racemic) [Butylone, (±)-1-(1,3-benzodioxol-5-yl)-2-(methylamino)-butan-1-one]
pKa [3]: 8.64 ± 0.01

CC(=O)O[C@@H]1[C@@H](OC(C)=O)[C@H]2O[C@H]3[C@H](OC(C)=O)[C@@H](OC(C)=O)[C@@H](O[C@H]4[C@H](OC(C)=O)[C@@H](OC(C)=O)[C@@H](O[C@H]5[C@H](OC(C)=O)[C@@H](OC(C)=O)[C@@H](O[C@H]6[C@H](OC(C)=O)[C@@H](OC(C)=O)[C@@H](O[C@H]7[C@H](OC(C)=O)[C@@H](OC(C)=O)[C@@H](O[C@H]8[C@H](OC(C)=O)[C@@H](OC(C)=O)[C@@H](O[C@@H]1[C@@H](COS(=O)(=O)O)O2)O[C@@H]8COS(=O)(=O)O)O[C@@H]7COS(=O)(=O)O)O[C@@H]6COS(=O)(=O)O)O[C@@H]5COS(=O)(=O)O)O[C@@H]4COS(=O)(=O)O)O[C@@H]3COS(=O)(=O)O [HDAS-β-CD, heptakis-(2,3-O-diacethyl, 6-O-sulfo)-β-CD]
4-MEC–CD complex stability constant, Kstab2 (second migrating enantiomer) [1]: 830 ± 45 M⁻¹
4-MEC–CD complex stability constant, Kstab/Kstab1 (unresolved or first migrating enantiomer) [1]: 560 ± 40 M⁻¹
Butylone–CD complex stability constant, Kstab/Kstab1 (unresolved or first migrating enantiomer) [1]: 725 ± 20 M⁻¹
Flephedrone–CD complex stability constant, Kstab2 (second migrating enantiomer) [1]: 360 ± 75 M⁻¹
Flephedrone–CD complex stability constant, Kstab/Kstab1 (unresolved or first migrating enantiomer) [1]: 110 ± 37 M⁻¹
MDPV–CD complex stability constant, Kstab2 (second migrating enantiomer) [1]: 340 ± 30 M⁻¹
MDPV–CD complex stability constant, Kstab/Kstab1 (unresolved or first migrating enantiomer) [1]: 360 ± 55 M⁻¹
Mephedrone–CD complex stability constant, Kstab2 (second migrating enantiomer) [1]: 730 ± 40 M⁻¹
Mephedrone–CD complex stability constant, Kstab/Kstab1 (unresolved or first migrating enantiomer) [1]: 450 ± 60 M⁻¹
Flephedrone–CD complex stability constant Kstab1 (first migrating enantiomer) [2]: 470 ± 40 M⁻¹
Flephedrone–CD complex stability constant, Kstab2 (second migrating enantiomer) [2]: 660 ± 55 M⁻¹
MDPV–CD complex stability constant Kstab1 (first migrating enantiomer) [2]: 800 ± 50 M⁻¹
MDPV–CD complex stability constant, Kstab2 (second migrating enantiomer) [2]: 960 ± 80 M⁻¹

CCNC(C)C(=O)c1ccc(C)cc1 (racemic) [4-MEC, (±)-2-(ethylamino)-1-(4-methylphenyl)propan-1-one]
pKa [4]: 8.85 ± 0.04
pKa [3]: 8.81 ± 0.02

CNC(C)C(=O)c1ccc(C)cc1 (racemic) [Mephedrone, (±)-2-(methylamino)-1-(4-methylphenyl)propan-1-one]
pKa [3]: 8.61 ± 0.01
pKa [5]: 8.82

— PMC10893103, “Cyclodextrin-Enabled Enantioselective Complexation Study of Cathinone Analogs” (Molecules, 2024)
